The results in this text go back to patent EP4596537A1, “NOVEL FLUORENE DERIVATIVE COMPOUND AND USE THEREOF” (JD Bioscience Inc., priority 2022, dated 2024).

In the experiment the test system is PDHE1α S293. Briefly: In vitro PDH S293 phosphorylation inhibition (Western blot) in HEK293 cells. The format is cell-based, human. Particulars: Homo sapiens, 5 hours. The procedure:
HEK293 cells, which are human embryonic kidney cells, were seeded at a density of 2 × 10^6 in a 60 mm dish, and cultured for 24 hours. After replacing the medium with a medium comprising 0.5% FBS, the compounds prepared according to Examples 1 to 54 were treated at various concentrations. 5 hours later, the cells were scraped off and collected into a 15 mL conical tube and centrifuged at 1500 rpm for 10 minutes. The supernatant was discarded, the resultant was washed with 1× PBS, and transferred to a 1.5 mL e-tube, followed by centrifugation at 10,000 rpm for 5 minutes. The supernatant was discarded again, a lysis buffer was added, and the cells were lysed on ice for 30 minutes. The cells were vortexed every 10 minutes to completely lyse, and centrifuged again at 10,000 rpm for 15 minutes at 4°C, and the supernatant was collected. The protein in the supernatant was quantified using BCA technique, and the sample buffer was added to 20 µg of protein and allowed to react at 70°C for 5 minutes. The expression of PDHE1α S232, S293, S300, and total PDHE1α proteins was detected by Western blot, and the resulting PDH S293 phosphorylation inhibition is shown in Table 6. […]
Regarding `COc1cc(-c2cnn(C(C)C(=O)NNc3cccnc3)c2)c2c(c1)C(O)(C(F)(F)F)c1ccccc1-2` (centres unmarked) [Example 31, 2-(4-(9-hydroxy-2-methoxy-9-(trifluoromethyl)-9H-fluoren-4-yl)-1H-pyrazol-1-yl)-N'-(pyridin-3-yl)propanehydrazide], the inhibition (as a rule, how much of the control response was suppressed) at 1 µM is no less than 50%.
The molecule `CC(C(=O)NNc1ccc2nccn2n1)n1cc(-c2cc(F)cc3c2-c2ccccc2C3(O)C(F)(F)F)cn1` (centres unmarked) [Example 41, 2-(4-(2-fluoro-9-hydroxy-9-(trifluoromethyl)-9H-fluoren-4-yl)-1H-pyrazol-1-yl)-N'-(imidazo[1,2-b]pyridazin-6-yl)propanehydrazide] came in with an inhibition at 1 µM of no less than 50%.
Molecule `COc1cc(-c2cnn(C(C)C(=O)NNc3cnccn3)c2)c2c(c1)C(O)(C(F)(F)F)c1ccccc1-2` (centres unmarked) [Example 25, 2-(4-(9-hydroxy-2-methoxy-9-(trifluoromethyl)-9H-fluoren-4-yl)-1H-pyrazol-1-yl)-N'-(pyrazin-2-yl)propanehydrazide] displayed an inhibition at 1 µM of no less than 50%.
Then `COc1cc(-c2cnn(C(C)C(=O)NNc3ccc(Cl)cc3)c2)c2c(c1)C(O)(C(F)(F)F)c1ccccc1-2` (centres unmarked) [Example 10, N'-(4-chlorophenyl)-2-(4-(9-hydroxy-2-methoxy-9-(trifluoromethyl)-9H-fluoren-4-yl)-1H-pyrazol-1-yl)propanehydrazide], with no less than 50%; and `C[C@@H](C(=O)NNc1ccc(F)cc1)n1cc(-c2cc(F)cc3c2-c2ccccc2[C@@]3(O)C(F)(F)F)cn1` [Example 48, (S)-2-(4-((S)-2-fluoro-9-hydroxy-9-(trifluoromethyl)-9H-fluoren-4-yl)-1H-pyrazol-1-yl)-N'-(4-fluorophenyl)propanehydrazide], with no less than 50%; and `O=C(NNc1ccc(F)cc1)C(CC1CCCCC1)n1cc(-c2cc(F)cc3c2-c2ccccc2C3(O)C(F)(F)F)cn1` (centres unmarked) [Example 46, 3-cyclohexyl-2-(4-(2-fluoro-9-hydroxy-9-(trifluoromethyl)-9H-fluoren-4-yl)-1H-pyrazol-1-yl)-N'-(4-fluorophenyl)propanehydrazide], with no less than 50%.
Next, `C[C@@H](C(=O)NNc1ccc(F)cc1)n1cc(-c2cc(F)cc3c2-c2ccccc2[C@]3(O)C(F)(F)F)cn1` [Example 50, (S)-2-(4-((R)-2-fluoro-9-hydroxy-9-(trifluoromethyl)-9H-fluoren-4-yl)-1H-pyrazol-1-yl)-N'-(4-fluorophenyl)propanehydrazide]: no less than 50%; `CC(C(=O)NNc1cccc2ccccc12)n1cc(-c2cc(F)cc3c2-c2ccccc2C3(O)C(F)(F)F)cn1` (centres unmarked) [Example 5, 2-(4-(2-fluoro-9-hydroxy-9-(trifluoromethyl)-9H-fluoren-4-yl)-1H-pyrazol-1-yl)-N'-(naphthalen-1-yl)propanehydrazide]: no less than 50%; `CC(C(=O)NNc1ccc(C(=O)O)cn1)n1cc(-c2cc(F)cc3c2-c2ccccc2C3(O)C(F)(F)F)cn1` (centres unmarked) [Example 14, 6-(2-(2-(4-(2-fluoro-9-hydroxy-9-(trifluoromethyl)-9H-fluoren-4-yl)-1H-pyrazol-1-yl)propanoyl)hydrazinyl)nicotinic acid]: no less than 50%.
`CC(C(=O)NNc1cc(=O)n(C)c2ccccc12)n1cc(-c2cc(F)cc3c2-c2ccccc2C3(O)C(F)(F)F)cn1` (centres unmarked) [Example 40, 2-(4-(2-fluoro-9-hydroxy-9-(trifluoromethyl)-9H-fluoren-4-yl)-1H-pyrazol-1-yl)-N'-(1-methyl-2-oxo-1,2-dihydroquinolin-4-yl)propanehydrazide] showed an inhibition at 1 µM of no less than 50%.
Then `O=C(Cn1cc(-c2cc(F)cc3c2-c2ccccc2C3(O)C(F)(F)F)cn1)NNc1ccc(C(=O)O)cn1` (centres unmarked) [Example 20, 6-(2-(2-(4-(2-fluoro-9-hydroxy-9-(trifluoromethyl)-9H-fluoren-4-yl)-1H-pyrazol-1-yl)acetyl)hydrazinyl)nicotinic acid], with no less than 50%.
